Source: patent US11491127B2, “Therapeutic use of compounds” (UCL BUSINESS LTD, priority 2010, dated 2022)

Tests used:
[1] = test system: release of 3H arachidonic acid / palmitic acid radiolabel from Dictyostelium cells; experiment: Fatty acid release (3H radiolabel release from labelled cells); type: cell-based, Dictyostelium discoideum
[2] = test system: self-sustaining status epilepticus in Sprague Dawley rats; experiment: In vivo status epilepticus (perforant path stimulation); design: species or system rat; details: 400 mg/kg
Procedure: This method has been described in detail previously (Walker et al., 1999). In brief, male Sprague Dawley rats […] were anesthetized with 1-2% isoflurane in O2. An earth electrode was positioned subcutaneously, and a monopolar recording electrode was implanted stereotactically into the right hippocampus (coordinates, 2.5 mm lateral and 4 mm caudal from bregma). A bipolar stimulating electrode was implanted in the right hemisphere and advanced into the angular bundle (coordinates, 4.4 mm lateral and 8.1 mm caudal from bregma) to stimulate the perforant path. The depths of the electrodes were adjusted to maximize the slope of the dentate granule cell field potential (Guo et al., 1999). The electrodes were held in place with dental acrylic and skull screws. The animals were allowed to recover from anaesthesia. Seven days later, the perforant path was electrically stimulated with 4-5 mA 50 μsec monopolar pulses at 20 Hz for 2 hr; this induced self-sustaining status epilepticus. After 10 min of self-sustaining status epilepticus, compounds or vehicle were administered and the behavioural seizures and EEG were monitored for 3 hours. At this point diazepam (10 mg/kg) was administered to all animals to stop the status epilepticus. Groups were compared by ANOVA followed by post-hoc testing using Tukey test, using SPSS.

[3] = test system: PTZ-induced epileptiform activity in entorhinal cortex-hippocampal slices; experiment: In vitro PTZ acute seizure model, entorhinal cortex-hippocampus slices; type: cell-based, rat; details: PTZ 2 mM, [K+] 6 mM; compounds equimolar 1 mM; 30 to 40 minutes after application
Procedure: (§1) The rats (p21) were decapitated after killing by intraperitoneal injection with an overdose of pentobarbitone (500 mg/kg). The brain was removed and placed in ice-cold sucrose solution in mM: NaCl 87, KCl 2.5, MgCl2 7, CaCl2 0.5, NaH2PO4 1.25, sucrose 75, glucose 25, equilibrated with 95% 02/5% CO2 (pH 7.4). Horizontal combined entorhinal cortex-hippocampus slices (350 μm) were prepared with a Leica vibratome (Leica V T1200S) and were then stored in an interface chamber that contained artificial cerebrospinal fluid solution (aCSF) containing in mM: NaCl 119, KCl 2.5, MgSO4 4, CaCl2 4, NaHCO326.2, NaH2PO4 1, glucose 11, and gassed with 95% O2/5% CO2. They were stored for over one hour before being transferred to a submersion recording chamber continually perfused with carbogenated aCSF for recording. Field potential recordings were made by placing glass microelectrodes (˜1-2 MΩ) filled with aCSF solution in stratum radiatum of CA1. Bipolar stimulating electrodes were positioned in the Schaffer collateral/commissural fibre pathway in stratum radiatum to confirm slice viability. In the PTZ acute seizure model, PTZ (2 mM) was added to the perfusate and [K+] was increased to 6 mM in order to induce epileptiform activity (Armand et al., 1998). In the low Mg^2+ acute seizure model, Mg^2+ free aCSF was applied to generate rhythmic short recurrent discharges. Novel anticonvulsants were applied once the frequency and amplitude of the epileptiform discharges were stable over a period of 10 min. Anticonvulsant effects were evaluated by measuring the variation of frequency of the discharges every minute. The data acquired from the 30 to 40 minutes after application novel anticonvulsants were compared by ANOVA followed by post-hoc testing using Tukey test, using SPSS statistical analysis.

[4] = test system: phosphoinositide (PIP and PIP2) turnover in Dictyostelium AX2 cells; experiment: Dictyostelium phospholipid labelling (PIP and PIP2 turnover); type: cell-based, Dictyostelium discoideum; details: wild type Dictyostelium; for activity at 500 µM: Dictyostelium, 0.1 h, read-out: PIP Level (% control), Table 1, 0.5 mM compound, 3 min pre-treatment + 6 min labelling
Procedure: Phospholipid labelling was quantified using a Typhoon phosphor-imager. Even loading was determined using total lipid stain with copper sulphate.

[5] = test system: low magnesium-induced burst discharges in entorhinal cortex-hippocampal slices; experiment: In vitro low Mg2+ acute seizure model, entorhinal cortex-hippocampus slices; type: cell-based, rat; details: 1 mM, 30-40 minutes after application
Procedure: as §1, with “In the low Mg^2+ acute seizure model, Mg^2+ free aCSF was applied to generate rhythmic short recurrent discharges. Novel anticonvulsants were applied once the frequency and amplitude of the epileptiform discharges were stable over a period of 10 min.” left out, “The data acquired from the 30 to 40 minutes after application novel anticonvulsants were compared by ANOVA followed by post-hoc testing using Tukey test, using SPSS statistical analysis.” left out

[6] = test system: uptake of 3H arachidonic acid / palmitic acid into Dictyostelium cells; experiment: Fatty acid uptake (3H radiolabel incorporation into cells); type: cell-based, Dictyostelium discoideum; details: 3H-AA; FIG. 9
[7] = test system: inositol levels in Dictyostelium cells; experiment: Inositol levels in treated Dictyostelium cells; type: cell-based, Dictyostelium discoideum; details: time period causing phosphoinositide attenuation (9 min)
Procedure: Following a 6 min incubation, labelling solution was removed and cells were lysed in acidified methanol and phospholipids were separated as previously detailed (Williams et al., 1999). Phospholipid labelling was quantified using a Typhoon phosphor-imager. Even loading was determined using total lipid stain with copper sulphate. Inositol levels were measured from five hour developed cells (similar to phospholipid labelling), following lyophilisation, as previously described (Maslanski & Busa, 1990).

[8] = biological target: T1, human myo-inositol synthase (Homo sapiens, UniProt Q9NPH2); details: Shaltiel et al., 2004, 2007a; cited from earlier work
T1 sequence (Q9NPH2 1-558): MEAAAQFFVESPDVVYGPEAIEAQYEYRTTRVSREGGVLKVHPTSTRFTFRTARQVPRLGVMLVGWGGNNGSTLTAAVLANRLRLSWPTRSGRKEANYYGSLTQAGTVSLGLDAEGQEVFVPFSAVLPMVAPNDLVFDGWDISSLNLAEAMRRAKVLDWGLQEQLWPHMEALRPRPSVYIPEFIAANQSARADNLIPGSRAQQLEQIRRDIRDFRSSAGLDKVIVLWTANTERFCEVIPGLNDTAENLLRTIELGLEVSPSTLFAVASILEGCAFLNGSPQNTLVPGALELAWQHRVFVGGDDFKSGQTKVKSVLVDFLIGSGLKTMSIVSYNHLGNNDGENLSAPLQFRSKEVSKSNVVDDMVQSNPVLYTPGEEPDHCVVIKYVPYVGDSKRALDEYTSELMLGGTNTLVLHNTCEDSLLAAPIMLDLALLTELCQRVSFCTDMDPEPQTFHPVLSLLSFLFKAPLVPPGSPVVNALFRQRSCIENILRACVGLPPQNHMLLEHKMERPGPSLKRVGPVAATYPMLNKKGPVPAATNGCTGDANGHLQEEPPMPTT

[9] = test system: inositol trisphosphate (InsP3) levels in Dictyostelium; details: Eickholt et al., 2005; cited from earlier work
[10] = test system: self-sustaining status epilepticus in Sprague Dawley rats; details: previously shown (Chang et al., 2009); cited from earlier work

CCCCC(C)CCC(=O)O (centres unmarked) [4-methyloctanoic acid]
inhibitory effect on radiolabel release ([1]; 3H-AA, FIG. 9): weak
activity at 500 µM ([1]; Dictyostelium, 0.5 h, Table 3, 3H-AA labelled cells, 30 min, 0.5 mM treatment, read-out: AA release [% of control]): 66%
animals in which status epilepticus terminated (spike frequency of less than 1 Hz) [2]: all
seizure control in words ([2]; 3 hour test period): protected against seizures over the test period
animals in which seizures completely stopped ([2]; after 2 hours, 7 animals per group): 7 animals
animals in which seizure stop was maintained ([2]; by three hours): five out of seven
mean spike frequency ([2]; first hour): 39.3±11.3%
mean spike frequency ([2]; second hour): 18.1±10.3%
mean spike frequency ([2]; third hour): 26.9±12.3%
frequency of epileptiform discharges (seizure discharge frequency) [3]: 49.1±4.4%
activity at 500 µM [4]: 12%
reduction of PIP2 signalling ([4]; Table 1): 93%
reduction of PIP signalling ([4]; Table 1): 88%
frequency of low magnesium-induced burst discharges [5]: almost abolished
frequency of low magnesium-induced burst discharges ([5]; listed as 4-MO): 1.6±3.1 % of baseline
effect on 3H-AA uptake compared with VPA [6]: reduced effect on uptake
reduction in inositol levels [7]: do not acutely deplete inositol

CCCC(CCC)C(N)=O [valpromide, 2-propylpentamide, reference compound]
inhibition of human myo-inositol synthase [8]: weak inhibition
radiolabel release activity relative to control ([1]; Table 3, 30 min, 0.5 mM): virtually no inhibition
activity at 500 µM [4]: 69.3%

CCC=C(C)C(=O)O [2-methyl-2-pentenoic acid]
activity at 500 µM [4]: 14.8%
InsP3 depletion [9]: strong InsP3 depletion

O=C1NC(=O)C(c2ccccc2)(c2ccccc2)N1 [phenytoin]
response of the status epilepticus model [10]: resistant
